PMC11876601 (Molecular Systems Biology, 2025)
Several values for one entry are separate records, joined by “and”; a condition that tells them apart may be missing. Identical values can stand only once. Like-named read-outs stand apart in the source and are kept apart here. Values belong to the molecule of their own block, whether it stands above or below them.

Assays:
p-sites in Dan-G cells = test: Phosphoproteomics GEM + Elimusertib vs. GEM (non-decryptM); assay type: cell-based, human
Protocol: (§1) Cell culture medium was replaced 24 h after seeding. […] For time point 0, AsPC-1 cells were treated with a vehicle and lysed immediately. The final DMSO concentration in all experiments was 0.2%.
(§2) Oxidized methionine, N-terminal acetylation, and phosphorylation (STY) were set as variable modification, and cysteine carbamidomethylation was set as fixed modification. All other search parameters were kept as default, except for protein FDR which was set to 1. […] Potential contaminants and reversed hits were removed, and only peptides with unambiguously assigned phosphorylation sites with a localization probability of > 0.75 were retained. To acquire site-level quantification values, the corrected reporter ion intensities of peptides containing the same phosphosite(s) were summed up. Median centering of corrected TMT reporter channel intensities was performed. […] Channel 11 served as a vehicle for the chemodrug treatment and was not subjected to curve fitting. Instead, row-wise normalization was performed across all four TMT-batches using the medians of channels 10 and 11. […] Phosphoproteomic experiments in six additional cell lines (not dose-resolved) were median-centered within each TMT-batch, prior to row-wise normalization across all TMT-batches using a common channel filled with AsPC-1 lysate (Appendix Table S5). Two-sided t-test analysis and multiple hypothesis testing correction was performed in R using the same parameters and thresholds as described above.

[1] = system: p-sites in PaTu-8988-T cells; test: as above; assay type: cell-based, human
Protocol: as §1, §2

p-sites in Capan-1 cells = test: as above; assay type: cell-based, human
Protocol: as §1, §2

p-sites in PANC-1 cells = test: as above; assay type: cell-based, human
Protocol: as §1, §2

p-sites in PSN-1 cells = test: as above; assay type: cell-based, human
Protocol: as §1, §2

[2] = system: p-sites in MiaPaCa-2 cells; test: as above; assay type: cell-based, human
Protocol: as §1, §2

GSK3B ; P49841-2;P49841 = GSK3B ; P49841-2;P49841 (Homo sapiens, UniProt P49841); test: biochemical; parameters: species or system AsPC-1; Kinobeads competition pulldown in AsPC-1 lysate with LC-MS/MS label-free quantification; apparent Kd
GSK3B ; P49841-2;P49841, sequence (P49841 whole entry): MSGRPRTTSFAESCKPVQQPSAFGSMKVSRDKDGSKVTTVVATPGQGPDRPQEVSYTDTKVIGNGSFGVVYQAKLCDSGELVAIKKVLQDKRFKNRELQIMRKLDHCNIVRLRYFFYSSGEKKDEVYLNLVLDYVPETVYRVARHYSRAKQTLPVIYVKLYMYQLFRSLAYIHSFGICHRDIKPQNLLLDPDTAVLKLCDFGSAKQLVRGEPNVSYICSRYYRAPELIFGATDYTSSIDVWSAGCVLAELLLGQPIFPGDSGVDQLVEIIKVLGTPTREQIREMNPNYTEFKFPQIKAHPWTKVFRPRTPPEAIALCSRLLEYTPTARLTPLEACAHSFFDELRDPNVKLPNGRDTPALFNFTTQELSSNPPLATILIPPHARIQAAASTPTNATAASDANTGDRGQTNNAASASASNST
Protocol: (§3) This was followed by incubation with Kinobeads ε (17.5 µl of settled beads) for 30 min at 4 °C to enrich kinases. […] Enriched proteins were reduced with 50 mM DTT in 8 M urea, 40 mM Tris-HCl, pH 7.4 for 30 min at room temperature, and alkylated with 55 mM chloroacetamide. After reducing the urea concentration to 1–2 M, proteins were digested with trypsin at 37 °C for 16 h. Subsequently, eluted peptides were desalted using SepPak tC18 µElution plates (Waters), freeze-dried by vacuum centrifugation, and stored at −20 °C. Proteins were filtered by potential contaminants, reversed hits and proteins identified only by site. Residual binding of proteins was calculated from LFQ intensities as the ratio between drug doses and vehicle. […] Only kinases quantified with at least 4 unique peptides in the vehicle experiment were considered. Potential targets were further curated through manual inspection of dose-dependent reduction in MS/MS and unique peptide counts.

IRAK4 = details: cited from earlier work
CHEK1 = details: cited from earlier work; for Kd: read-out: KDapp
MAPK9 = system: MAPK9; parameters: method as in Reinecke et al. (2023); details: MAPK9, 5 cell line mix lysate, Kinobeads ε, ref Reinecke et al. (2023), cited from earlier work
CAMK2B = biological target: CAMK2B; parameters: method as in Reinecke et al. (2023); details: 5 cell line mix lysate, Kinobeads ε, ref Reinecke et al. (2023), cited from earlier work
TNK1 = details: cited from earlier work
PRKD2 = details: cited from earlier work
AP2A1 = system: AP2A1; parameters: method as in Klaeger et al. (2017); details: AP2A1, 4 cell line mix lysate, Kinobeads y, ref Klaeger et al. (2017); cited from earlier work
CLK2 ; P49760-3;P49760 = CLK2 ; P49760-3;P49760 (Homo sapiens, UniProt P49760); test: biochemical; parameters: species or system AsPC-1; Kinobeads competition pulldown in AsPC-1 lysate with LC-MS/MS label-free quantification; apparent Kd
CLK2 ; P49760-3;P49760, sequence (P49760 whole entry): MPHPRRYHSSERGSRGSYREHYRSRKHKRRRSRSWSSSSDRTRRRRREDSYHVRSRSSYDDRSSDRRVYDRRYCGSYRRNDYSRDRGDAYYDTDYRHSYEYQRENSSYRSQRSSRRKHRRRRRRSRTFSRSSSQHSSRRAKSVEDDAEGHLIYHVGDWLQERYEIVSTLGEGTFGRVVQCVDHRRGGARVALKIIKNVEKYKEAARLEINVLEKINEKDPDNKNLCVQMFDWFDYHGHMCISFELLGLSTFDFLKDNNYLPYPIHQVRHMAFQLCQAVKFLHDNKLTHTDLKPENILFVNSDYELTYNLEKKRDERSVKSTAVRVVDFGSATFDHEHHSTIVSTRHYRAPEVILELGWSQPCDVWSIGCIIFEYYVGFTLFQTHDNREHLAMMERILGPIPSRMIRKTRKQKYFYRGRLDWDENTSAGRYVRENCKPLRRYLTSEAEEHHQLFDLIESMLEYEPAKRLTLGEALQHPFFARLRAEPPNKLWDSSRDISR
Protocol: as §3

AXL ; P30530-2;P30530 = AXL ; P30530-2;P30530 (Homo sapiens, UniProt P30530); test: biochemical; parameters: species or system AsPC-1; Kinobeads competition pulldown in AsPC-1 lysate with LC-MS/MS label-free quantification; apparent Kd
AXL ; P30530-2;P30530, sequence (P30530 whole entry): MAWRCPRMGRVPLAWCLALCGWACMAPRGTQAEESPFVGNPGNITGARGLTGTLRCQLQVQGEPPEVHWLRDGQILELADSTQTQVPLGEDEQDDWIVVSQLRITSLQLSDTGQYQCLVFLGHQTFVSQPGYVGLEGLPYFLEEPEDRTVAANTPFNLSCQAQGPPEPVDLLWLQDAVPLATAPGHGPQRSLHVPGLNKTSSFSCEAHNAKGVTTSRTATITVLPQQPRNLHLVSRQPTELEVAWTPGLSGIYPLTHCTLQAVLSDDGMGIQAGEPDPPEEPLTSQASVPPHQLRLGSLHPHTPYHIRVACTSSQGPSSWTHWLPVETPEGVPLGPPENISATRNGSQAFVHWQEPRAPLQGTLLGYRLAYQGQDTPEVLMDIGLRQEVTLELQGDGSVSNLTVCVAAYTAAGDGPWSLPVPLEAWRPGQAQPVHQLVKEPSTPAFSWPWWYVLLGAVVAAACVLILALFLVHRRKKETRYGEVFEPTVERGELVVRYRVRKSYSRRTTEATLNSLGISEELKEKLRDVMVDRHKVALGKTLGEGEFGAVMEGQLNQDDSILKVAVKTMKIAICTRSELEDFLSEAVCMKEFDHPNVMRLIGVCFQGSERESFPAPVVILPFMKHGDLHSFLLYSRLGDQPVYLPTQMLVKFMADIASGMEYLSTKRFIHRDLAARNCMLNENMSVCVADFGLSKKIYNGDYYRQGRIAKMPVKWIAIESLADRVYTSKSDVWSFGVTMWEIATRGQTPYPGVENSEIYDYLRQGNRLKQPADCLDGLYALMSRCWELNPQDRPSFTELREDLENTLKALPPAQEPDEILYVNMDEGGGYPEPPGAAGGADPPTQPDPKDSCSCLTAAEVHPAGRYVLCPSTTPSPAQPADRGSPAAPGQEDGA
Protocol: as §3

FN3KRP ; Q9HA64 = FN3KRP ; Q9HA64 (Homo sapiens, UniProt Q9HA64); test: biochemical; parameters: species or system AsPC-1; Kinobeads competition pulldown in AsPC-1 lysate with LC-MS/MS label-free quantification; apparent Kd
FN3KRP ; Q9HA64, sequence (Q9HA64 whole entry): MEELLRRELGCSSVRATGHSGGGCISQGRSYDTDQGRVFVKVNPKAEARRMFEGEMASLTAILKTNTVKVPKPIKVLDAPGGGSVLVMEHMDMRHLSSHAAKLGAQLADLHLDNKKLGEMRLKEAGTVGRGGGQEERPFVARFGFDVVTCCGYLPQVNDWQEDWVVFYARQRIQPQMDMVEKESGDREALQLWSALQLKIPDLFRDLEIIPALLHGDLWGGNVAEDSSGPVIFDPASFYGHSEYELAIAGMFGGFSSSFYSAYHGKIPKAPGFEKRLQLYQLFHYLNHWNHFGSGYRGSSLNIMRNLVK
Protocol: as §3

CDC42BPG ; Q6DT37 = CDC42BPG ; Q6DT37 (Homo sapiens, UniProt Q6DT37); test: biochemical; parameters: species or system AsPC-1; Kinobeads competition pulldown in AsPC-1 lysate with LC-MS/MS label-free quantification; apparent Kd
CDC42BPG ; Q6DT37, sequence (Q6DT37 whole entry): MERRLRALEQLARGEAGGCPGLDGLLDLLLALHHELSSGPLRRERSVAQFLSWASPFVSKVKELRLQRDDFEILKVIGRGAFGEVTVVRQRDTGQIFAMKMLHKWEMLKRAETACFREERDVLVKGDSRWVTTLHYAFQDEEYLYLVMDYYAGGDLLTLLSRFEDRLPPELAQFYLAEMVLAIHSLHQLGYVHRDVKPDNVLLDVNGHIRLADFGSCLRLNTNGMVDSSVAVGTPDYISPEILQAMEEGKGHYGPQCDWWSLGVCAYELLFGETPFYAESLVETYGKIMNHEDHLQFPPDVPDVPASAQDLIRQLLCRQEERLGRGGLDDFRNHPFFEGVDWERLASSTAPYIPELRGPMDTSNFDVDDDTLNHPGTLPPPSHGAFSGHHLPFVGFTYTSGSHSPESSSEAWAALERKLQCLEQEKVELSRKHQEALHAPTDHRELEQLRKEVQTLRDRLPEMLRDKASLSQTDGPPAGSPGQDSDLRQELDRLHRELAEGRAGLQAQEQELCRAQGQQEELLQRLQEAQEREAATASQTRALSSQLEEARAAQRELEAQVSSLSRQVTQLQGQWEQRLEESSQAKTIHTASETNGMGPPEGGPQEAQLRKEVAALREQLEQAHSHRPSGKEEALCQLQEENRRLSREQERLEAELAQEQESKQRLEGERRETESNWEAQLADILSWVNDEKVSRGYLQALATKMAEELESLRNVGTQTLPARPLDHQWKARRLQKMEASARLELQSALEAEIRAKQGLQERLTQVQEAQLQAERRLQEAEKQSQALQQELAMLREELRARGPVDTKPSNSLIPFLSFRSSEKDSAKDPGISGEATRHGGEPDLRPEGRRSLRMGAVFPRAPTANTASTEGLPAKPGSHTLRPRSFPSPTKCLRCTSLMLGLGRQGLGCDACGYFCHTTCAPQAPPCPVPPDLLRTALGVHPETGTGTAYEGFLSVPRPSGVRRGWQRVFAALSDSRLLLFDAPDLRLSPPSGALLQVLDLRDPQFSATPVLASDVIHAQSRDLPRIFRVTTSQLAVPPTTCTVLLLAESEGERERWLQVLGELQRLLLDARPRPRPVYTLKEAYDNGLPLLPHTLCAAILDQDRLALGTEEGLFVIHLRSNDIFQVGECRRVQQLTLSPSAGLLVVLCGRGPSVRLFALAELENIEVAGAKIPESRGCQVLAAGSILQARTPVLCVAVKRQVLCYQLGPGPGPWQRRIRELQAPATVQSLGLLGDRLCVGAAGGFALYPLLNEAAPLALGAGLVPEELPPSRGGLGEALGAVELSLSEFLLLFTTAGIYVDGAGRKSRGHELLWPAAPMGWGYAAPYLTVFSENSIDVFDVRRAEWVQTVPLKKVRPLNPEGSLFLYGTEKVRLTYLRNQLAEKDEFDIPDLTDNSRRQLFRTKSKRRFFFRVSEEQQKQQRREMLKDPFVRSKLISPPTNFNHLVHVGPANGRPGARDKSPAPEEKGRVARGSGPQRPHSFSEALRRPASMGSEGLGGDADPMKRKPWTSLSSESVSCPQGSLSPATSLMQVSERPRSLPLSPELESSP
Protocol: as §3

[3] = IRAK4, 5 cell line mix lysate, Kinobeads ε, ref Reinecke et al. (2023)
[4] = CHEK1, 5 cell line mix lysate, Kinobeads ε, ref Reinecke et al. (2023)
[5] = TNK1, 5 cell line mix lysate, Kinobeads ε, ref Reinecke et al. (2023)
[6] = PRKD2, 5 cell line mix lysate, Kinobeads ε, ref Reinecke et al. (2023)

SMILES: Nc1ccn([C@@H]2O[C@H](CO)[C@@H](O)C2(F)F)c(=O)n1 [GEM, Gemcitabine]
Mean log2 TMT reporter ion intensity (p-sites in Dan-G cells; source data 5F (p-site not named), DANG): 20.35
Mean log2 TMT reporter ion intensity ([1]; source data 5F (p-site not named), PATU8988T): 19.97
Mean log2 TMT reporter ion intensity (p-sites in Capan-1 cells; source data 5F (p-site not named), CAPAN1): 20.29
Mean log2 TMT reporter ion intensity (p-sites in PANC-1 cells; source data 5F (p-site not named), PANC1): 18.30
Mean log2 TMT reporter ion intensity (p-sites in PSN-1 cells; source data 5F (p-site not named), PSN1): 19.41
Mean log2 TMT reporter ion intensity ([2]; source data 5F (p-site not named), MIAPACA2): 18.24

SMILES: CNCc1ccc(-c2cc(-c3nc(-c4ccc(S(=O)(=O)C(C)C)cc4)cnc3N)on2)cc1 [Berzosertib]
Kd (GSK3B ; P49841-2;P49841): 33.2 nM

SMILES: COc1cc(N2CCC(N3CCN(C)CC3)CC2)ccc1Nc1ncc(Cl)c(Nc2ccccc2P(C)(C)=O)n1 [Brigatinib]
EC50 (IRAK4; [3]): 492 nM
pKDapp (IRAK4; [3]): 6.42
Kd (IRAK4; IRAK4, 5 cell line mix lysate, Kinobeads ε, ref Reinecke et al. (2023), read-out: KDapp): 381 nM
EC50 (CHEK1; [4]): 70.5 nM
pKDapp (CHEK1; [4]): 7.24
Kd (CHEK1; [4]): 58.2 nM
Kd (CHEK1; Kinobeads, ref Klaeger et al, 2017a, Reinecke et al, 2023a): 70 nM
EC50 (MAPK9): 2110 nM
pKDapp (MAPK9): 5.83
Kd (MAPK9; read-out: KDapp): 1480 nM
Kd (CAMK2B; read-out: KDapp): 48.4 nM
EC50 (CAMK2B): 323 nM
pKDapp (CAMK2B): 7.32
EC50 (TNK1; [5]): 1.59 nM
pKDapp (TNK1; [5]): 9.16
Kd (TNK1; TNK1, 5 cell line mix lysate, Kinobeads ε, ref Reinecke et al. (2023), read-out: KDapp): 0.69 nM
EC50 (PRKD2; [6]): 361 nM
pKDapp (PRKD2; [6]): 6.62
Kd (PRKD2; PRKD2, 5 cell line mix lysate, Kinobeads ε, ref Reinecke et al. (2023), read-out: KDapp): 238 nM

SMILES: C[C@]12O[C@H](C[C@]1(O)CO)n1c3ccccc3c3c4c(c5c6ccccc6n2c5c31)CNC4=O [Lestaurtinib]
EC50 (AP2A1): 83.7 nM

SMILES: C[C@@H]1COCCN1c1cc(-c2ccnn2C)c2ccnc(-c3ccn[nH]3)c2n1 [Elimusertib]
Mean log2 PTM response (GEM+Elimusertib vs. GEM) (p-sites in Dan-G cells): -1.06 and -1.18 and -1.05
Mean log2 PTM response (GEM+Elimusertib vs. GEM) [1]: -1.04
Mean log2 PTM response (GEM+Elimusertib vs. GEM) (p-sites in Capan-1 cells): -1.06
Mean log2 PTM response (GEM+Elimusertib vs. GEM) (p-sites in PANC-1 cells): -1.13
Mean log2 PTM response (GEM+Elimusertib vs. GEM) (p-sites in PSN-1 cells): -1.04 and -1.16
Mean log2 PTM response (GEM+Elimusertib vs. GEM) [2]: -1.06

Kd (CLK2 ; P49760-3;P49760): 303 nM
Kd (AXL ; P30530-2;P30530): 473 nM
Kd (FN3KRP ; Q9HA64): 358 nM
Kd (CDC42BPG ; Q6DT37): 16.9 nM
SMILES: Nc1nn2cc(F)cnc2c1C(=O)Nc1cncc(F)c1N1CCC(C(=O)N2CCN(C3COC3)CC2)CC1 [Gartisertib]
